According to patent US12622902B2, “Anti-arrhythmic pharmaceutical composition and preparation method therefor” (JIANGSU KANION PHARMACEUTICAL CO., LTD., priority 2020, dated 2026):

Columns and labels:
[1] = Study of compositions of compound A and its salt under moisture and heat; format: physicochemical; details: condition of moisture and heat
Description: Accordingly, the present application provides an anti-arrhythmic pharmaceutical composition with high stability and rapid dissolution, and a preparation method thereof.

[2] = test system: ventricular tachycardia and ventricular fibrillation; details: cited from earlier work

For `COc1cc2c(cc1OCc1ccccc1)C(Cc1cccc(NS(C)(=O)=O)c1)NCC2` (stereo not drawn) [compound A, 1-(3-methanesulfonamidobenzyl)-6-methoxy, 7-benzyloxy-1,2,3,4-tetrahydroisoquinoline], the “stability of the drug in a pharmaceutical composition” value [1] is given as “decomposed”, the “effect on ventricular tachycardia and ventricular fibrillation” value [2] is given as “effective” and the action potential duration ([2]; class III anti-arrhythmic drug) is given as “can prolong”.
